Earlier results in US6750249B1, “Controlled release oral preparations of esculetin and its derivatives” (priority 1998, dated 2004).

Test system: glycosaminoglycan in the matrix
Conditions: stimulation of interleukin-1 and the like; Japanese Patent Application Laid-open No. 312925/1994

Row | Compound | depression of a decrease in the amount of glycosaminoglycan in the matrix
1 | O=c1ccc2cc(O)c(O)cc2o1 [esculetin] | strongly depress a decrease in the amount of glycosaminoglycan
2 | Cc1cc(=O)oc2cc(O)c(O)cc12 [4-methyl esculetin] | strongly depress a decrease in the amount of glycosaminoglycan
